Experimental data taken from patent US10550105B2 (Ribon Therapeutics Inc., priority 2018, dated 2020).
pIC50: −log10 of the molar value.

biological target: PARP7 (Homo sapiens (Human), UniProt Q7Z3E1); experiment: Enzymatic assay for inhibition of PARP7: TR-FRET displacement of biotinylated Probe A from the TIPARP active site; format: binding; settings: Table A-1
In short: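 Compound dose-response series were incubated with TIPARP and biotinylated Probe A, with a final 30 min step at 25 °C. TR-FRET was read at 320 nm excitation, 615/665 nm emission and 90 μs delay, using the 665/615 ratio to measure complex formation. % inhibition was fitted with a floating or fixed (1) Hill coefficient.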

Sequence of PARP7 (Q7Z3E1 whole entry): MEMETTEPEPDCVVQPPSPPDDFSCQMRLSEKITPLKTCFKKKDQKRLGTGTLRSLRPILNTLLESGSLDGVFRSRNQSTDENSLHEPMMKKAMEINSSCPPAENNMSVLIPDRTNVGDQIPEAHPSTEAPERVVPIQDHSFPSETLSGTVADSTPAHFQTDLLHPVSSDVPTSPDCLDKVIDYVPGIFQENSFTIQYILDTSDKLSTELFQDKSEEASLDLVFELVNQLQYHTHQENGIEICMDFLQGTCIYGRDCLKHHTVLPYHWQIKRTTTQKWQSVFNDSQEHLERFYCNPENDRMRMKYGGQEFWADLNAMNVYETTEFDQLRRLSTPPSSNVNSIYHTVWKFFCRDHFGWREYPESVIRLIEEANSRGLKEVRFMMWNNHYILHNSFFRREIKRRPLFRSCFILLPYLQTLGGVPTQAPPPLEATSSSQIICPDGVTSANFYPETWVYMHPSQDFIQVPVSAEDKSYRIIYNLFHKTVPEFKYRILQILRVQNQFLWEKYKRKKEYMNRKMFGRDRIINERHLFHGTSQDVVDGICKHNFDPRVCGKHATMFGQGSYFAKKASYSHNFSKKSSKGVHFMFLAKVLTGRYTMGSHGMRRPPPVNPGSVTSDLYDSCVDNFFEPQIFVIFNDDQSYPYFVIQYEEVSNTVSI

Row | Structure (SMILES) | pIC50
1 | CN(c1cccc2c1CN(c1cn[nH]c(=O)c1C(F)(F)F)C2)C1CCNCC1 [Example 302, 5-(4-(Methyl(piperidin-4-yl)amino)isoindolin-2-yl)-4-(trifluoromethyl)pyridazin-3(2H)-one] | 6.00 to 7.00
2 | N#Cc1c(N2Cc3cccc(OCCO)c3C2)cn[nH]c1=O [Example 176, 5-(4-(2-Hydroxyethoxy)isoindolin-2-yl)-3-oxo-2,3-dihydropyridazine-4-carbonitrile] | ≤ 6.00
3 | Cc1c(OCCOCCC(=O)N2CCN(c3ccc(C#N)cn3)CC2)cn[nH]c1=O [Example 551, 6-[4-(3-[2-[(5-Methyl-6-oxo-1,6-dihydropyridazin-4-yl)oxy]ethoxy]propanoyl)piperazin-1-yl]pyridine-3-carbonitrile] | > 7.00
4 | N#Cc1ccc(N2CCN(C(=O)CCOCC3CCCCN3c3cn[nH]c(=O)c3Br)CC2)nc1 (stereo not shown) [Example 131, 6-(4-(3-((1-(5-bromo-6-oxo-1,6-dihydropyridazin-4-yl)piperidin-2-yl)methoxy)propanoyl)piperazin-1-yl)nicotinonitrile] | 6.00 to 7.00
5 | COC[C@@H](COCCC(=O)N1CCN(c2ncc(C(F)(F)F)cn2)CC1)Nc1cn[nH]c(=O)c1Cl [Example 651, (S)-4-Chloro-5-((1-methoxy-3-(3-oxo-3-(4-(5-(trifluoromethyl)pyrimidin-2-yl)piperazin-1-yl)propoxy)propan-2-yl)amino)pyridazin-3(2H)-one] | > 7.00
6 | NCC1c2ccccc2CN1c1cn[nH]c(=O)c1C(F)(F)F (stereo not shown) [Example 275, 5-(1-(Aminomethyl)isoindolin-2-yl)-4-(trifluoromethyl)pyridazin-3(2H)-one] | ≤ 6.00
7 | O=c1[nH]ncc(N2Cc3cccc(NCC4CCCO4)c3C2)c1C(F)(F)F (stereo not shown) [Example 254, 5-(4-(((Tetrahydrofuran-2-yl)methyl)amino)isoindolin-2-yl)-4-(trifluoromethyl)pyridazin-3(2H)-one] | 6.00 to 7.00
8 | COc1cccc2c1C(C)N(c1cn[nH]c(=O)c1C(F)(F)F)C2 (stereo not shown) [Example 309, 5-(7-Methoxy-1-methylisoindolin-2-yl)-4-(trifluoromethyl)pyridazin-3(2H)-one] | 6.00 to 7.00
9 | N#Cc1ccc(N2CCN(C(=O)CCCOC[C@H]3c4ccccc4CN3c3cn[nH]c(=O)c3C(F)(F)F)CC2)nc1 [Example 409, (R)-6-(4-(4-((2-(6-Oxo-5-(trifluoromethyl)-1,6-dihydropyridazin-4-yl)isoindolin-1-yl)methoxy)butanoyl)piperazin-1-yl)nicotinonitrile] | 6.00 to 7.00
10 | CC(=O)N(C)CC1c2ccccc2CN1c1cn[nH]c(=O)c1C(F)(F)F (stereo not shown) [Example 276, N-Methyl-N-((2-(6-oxo-5-(trifluoromethyl)-1,6-dihydropyridazin-4-yl)isoindolin-1-yl)methyl)acetamide] | ≤ 6.00
11 | Cc1ccc2c(n1)CN(c1cn[nH]c(=O)c1C(F)(F)F)C2 [Example 320, 5-(2-Methyl-5,7-dihydro-6H-pyrrolo[3,4-b]pyridin-6-yl)-4-(trifluoromethyl)pyridazin-3(2H)-one] | > 7.00
12 | O=c1[nH]ncc(N2Cc3cccc(OCCN4CCOCC4)c3C2)c1Cl [Example 240, 4-Chloro-5-(4-(2-morpholinoethoxy)isoindolin-2-yl)pyridazin-3(2H)-one] | 6.00 to 7.00
13 | N#Cc1cnc(N2CCN(C(=O)c3cccc(OC[C@H]4CCCN4c4cn[nH]c(=O)c4C(F)(F)F)c3)CC2)nc1 [Example 438, (R)-2-(4-(3-((1-(6-Oxo-5-(trifluoromethyl)-1,6-dihydropyridazin-4-yl)pyrrolidin-2-yl)methoxy)benzoyl)piperazin-1-yl)pyrimidine-5-carbonitrile] | ≤ 6.00
14 | COCCOc1ccc2c(c1)CN(c1cn[nH]c(=O)c1C(F)(F)F)C2 [Example 229, 5-(5-(2-Methoxyethoxy)isoindolin-2-yl)-4-(trifluoromethyl)pyridazin-3(2H)-one] | > 7.00
15 | CC(=O)N1CCC(COc2cc3c(cc2F)CN(c2cn[nH]c(=O)c2C(C)C)C3)CC1 [Example 489, 5-(5-((1-Acetylpiperidin-4-yl)methoxy)-6-fluoroisoindolin-2-yl)-4-isopropylpyridazin-3(2H)-one] | ≤ 6.00
16 | C[C@@H](COCCC(=O)N1CCN(c2ccc(CC#N)cn2)CC1)Oc1cn[nH]c(=O)c1C(F)(F)F [Example 656, (S)-2-(6-(4-(3-(2-((6-Oxo-5-(trifluoromethyl)-1,6-dihydropyridazin-4-yl)oxy)propoxy)propanoyl)piperazin-1-yl)pyridin-3-yl)acetonitrile] | > 7.00
17 | N#Cc1cccnc1N1CCN(C(=O)c2cccc(OCC3c4ccccc4CN3c3cn[nH]c(=O)c3C(F)(F)F)c2)CC1 (stereo not shown) [Example 358, 2-(4-(3-((2-(6-Oxo-5-(trifluoromethyl)-1,6-dihydropyridazin-4-yl)isoindolin-1-yl)methoxy)benzoyl)piperazin-1-yl)nicotinonitrile] | > 7.00
18 | N#Cc1ccc(N2CCN(C(=O)CCOC[C@H](CN3CCOCC3)Oc3cn[nH]c(=O)c3C(F)(F)F)CC2)nc1 [Example 663, (S)-6-(4-(3-(3-Morpholino-2-((6-oxo-5-(trifluoromethyl)-1,6-dihydropyridazin-4-yl)oxy)propoxy)propanoyl)piperazin-1-yl)nicotinonitrile] | > 7.00
19 | N#Cc1ccc(N2CCN(C(=O)C[C@@H]3CC[C@H](COc4cn[nH]c(=O)c4C(F)(F)F)O3)CC2)nc1 [Example 580 Isomer D, 6-(4-[2-[(2S,5R)-5-([[6-oxo-5-(trifluoromethyl)-1,6-dihydropyridazin-4-yl]oxy]methyl)oxolan-2-yl]acetyl]piperazin-1-yl)pyridine-3-carbonitrile] | > 7.00
20 | N#Cc1ccc(N2CCN(C(=O)c3ccc(OCc4cccc5c4CN(c4cn[nH]c(=O)c4C(F)(F)F)C5)cc3)CC2)nc1 [Example 400] | > 7.00

Now from value to molecule:

Row | pIC50 | Structure (SMILES)
21 | 6.00 to 7.00 | N#Cc1ccc(N2CCN(C(=O)C[C@H]3CC[C@H]([C@@H]4CCCN4c4cn[nH]c(=O)c4C(F)(F)F)O3)CC2)nc1 [Example 141D, 6-(4-[2-[(2R,5R)-5-[(2S)-1-[6-oxo-5-(trifluoromethyl)-1,6-dihydropyridazin-4-yl]pyrrolidin-2-yl]oxolan-2-yl]acetyl]piperazin-1-yl)pyridine-3-carbonitrile]
22 | 6.00 to 7.00 | NCc1ccc2c(c1)CN(c1cn[nH]c(=O)c1C(F)(F)F)C2 [Example 322, 5-(5-(Aminomethyl)isoindolin-2-yl)-4-(trifluoromethyl)pyridazin-3(2H)-one]
23 | ≤ 6.00 | N#Cc1ccc(N2CCN(C(=O)C[C@@H]3CC[C@H](COc4cn[nH]c(=O)c4Cl)O3)CC2)nc1 [Example 582 Isomer D, 6-(4-[2-[(2S,5R)-5-[[(5-Chloro-6-oxo-1,6-dihydropyridazin-4-yl)oxy]methyl]oxolan-2-yl]acetyl]piperazin-1-yl)pyridine-3-carbonitrile]
24 | > 7.00 | O=C(c1cncc(OC[C@@H]2c3ccccc3CN2c2cn[nH]c(=O)c2C(F)(F)F)c1)N1CCN(c2ccc(Cl)cn2)CC1 [Example 388, (S)-5-(1-(((5-(4-(5-Chloropyridin-2-yl)piperazine-1-carbonyl)pyridin-3-yl)oxy)methyl)isoindolin-2-yl)-4-(trifluoromethyl)pyridazin-3(2H)-one]
25 | ≤ 6.00 | N#CCCC(=O)N1CCN(C(=O)CCOC[C@H]2c3ccccc3CN2c2cn[nH]c(=O)c2C(F)(F)F)CC1 [Example 424, (R)-4-Oxo-4-(4-(3-((2-(6-oxo-5-(trifluoromethyl)-1,6-dihydropyridazin-4-yl)isoindolin-1-yl)methoxy)propanoyl)piperazin-1-yl)butanenitrile]
26 | > 7.00 | N#Cc1ccc(N2CCN(C(=O)CCO[C@H](CO)COc3cn[nH]c(=O)c3C(F)(F)F)CC2)nc1 (single isomer, unassigned) [Example 573 Isomer D]
27 | 6.00 to 7.00 | O=c1[nH]ncc(N2Cc3ccnc(OC4CCNCC4)c3C2)c1C(F)(F)F [Example 16, 5-[4-(piperidin-4-yloxy)-1H,2H,3H-pyrrolo[3,4-c]pyridin-2-yl]-4-(trifluoromethyl)-2,3-dihydropyridazin-3-one]
28 | > 7.00 | CNc1cccc2c1CN(c1cn[nH]c(=O)c1C(F)(F)F)C2 [Example 215, 5-(4-(Methylamino)isoindolin-2-yl)-4-(trifluoromethyl)pyridazin-3(2H)-one]
29 | > 7.00 | N#Cc1ccc(N2CCN(C(=O)c3ccnc(OC[C@@H]4CCCN4c4cn[nH]c(=O)c4C(F)(F)F)n3)CC2)nc1 [Example 68, 6-[4-[(2-[[(2S)-1-[6-oxo-5-(trifluoromethyl)-1,6-dihydropyridazin-4-yl]pyrrolidin-2-yl]methoxy]pyrimidin-4-yl)carbonyl]piperazin-1-yl]pyridine-3-carbonitrile]
30 | > 7.00 | O=C(CCOC[C@H](CO)Nc1cn[nH]c(=O)c1Br)N1CCN(c2ncc(C(F)(F)F)cn2)CC1 [Example 660, (S)-4-Bromo-5-((1-hydroxy-3-(3-oxo-3-(4-(5-(trifluoromethyl)pyrimidin-2-yl)piperazin-1-yl)propoxy)propan-2-yl)amino)pyridazin-3(2H)-one]
31 | > 7.00 | O=c1[nH]ncc(N2Cc3ccc(O)cc3C2)c1C(F)(F)F [Example 219, 5-(5-Hydroxyisoindolin-2-yl)-4-(trifluoromethyl)pyridazin-3(2H)-one]
32 | ≤ 6.00 | N#Cc1ccc(N2CCN(C(=O)CCNC[C@H]3c4ccccc4CN3c3cn[nH]c(=O)c3Cl)CC2)nc1 [Example 425, (R)-6-(4-(3-(((2-(5-Chloro-6-oxo-1,6-dihydropyridazin-4-yl)isoindolin-1-yl)methyl)amino)propanoyl)piperazin-1-yl)nicotinonitrile]
33 | > 7.00 | N#Cc1ccc(N2CCN(C(=O)c3cc(OC[C@@H]4CCCN4c4cn[nH]c(=O)c4C(F)(F)F)ccn3)CC2)nc1 [Example 73, 6-[4-[(4-[[(2S)-1-[6-oxo-5-(trifluoromethyl)-1,6-dihydropyridazin-4-yl]pyrrolidin-2-yl]methoxy]pyridin-2-yl)carbonyl]piperazin-1-yl]pyridine-3-carbonitrile]
34 | > 7.00 | N#Cc1ccc(N2CCN(C(=O)CCO[C@H]3CCC[C@@H]3Oc3cn[nH]c(=O)c3C(F)(F)F)CC2)nc1 (single isomer, unassigned) [Example 572 Isomer A]
